Measurements: the supplement of paper PMC10307832

What was measured:
Experiment in all cases: relative viability (nuclei count vs DMSO), 5 days (fraction); higher = more cells survive
AZD8055 + Tozasertib = compound: COc1ccc(-c2ccc3c(N4CCOC[C@@H]4C)nc(N4CCOC[C@@H]4C)nc3n2)cc1CO [AZD8055] + Cc1cc(Nc2cc(N3CCN(C)CC3)nc(Sc3ccc(NC(=O)C4CC4)cc3)n2)n[nH]1 [Tozasertib] (partner 0.1 µM)
Procedure, shortened: (§1)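 Lung cancer cell lines were pin-tool dosed in 1536-well plates on the day after seeding, with either a lone drug or a fixed anchor-drug dose plus five library-drug doses (not always all listed) in √10 steps. Nuclei were counted on 4× images after 5 days. Relative viability is the ratio of treated-well to vehicle-well nuclei counts, with each value a median of duplicate plates.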

AZD8055 + OSI-027 = compound: COc1ccc(-c2ccc3c(N4CCOC[C@@H]4C)nc(N4CCOC[C@@H]4C)nc3n2)cc1CO [AZD8055] + COc1cccc2cc(-c3nc([C@H]4CC[C@H](C(=O)O)CC4)n4ncnc(N)c34)[nH]c12 [OSI-027] (partner 0.5 µM)
Procedure, shortened: as §1

AZD8055 + Linsitinib = compound: COc1ccc(-c2ccc3c(N4CCOC[C@@H]4C)nc(N4CCOC[C@@H]4C)nc3n2)cc1CO [AZD8055] + C[C@]1(O)C[C@@H](c2nc(-c3ccc4ccc(-c5ccccc5)nc4c3)c3c(N)nccn32)C1 [Linsitinib] (partner 1 µM)
Procedure, shortened: as §1

AZD8055 + Crizotinib = compound: COc1ccc(-c2ccc3c(N4CCOC[C@@H]4C)nc(N4CCOC[C@@H]4C)nc3n2)cc1CO [AZD8055] + C[C@@H](Oc1cc(-c2cnn(C3CCNCC3)c2)cnc1N)c1c(Cl)ccc(F)c1Cl [Crizotinib] (partner 1 µM)
Procedure, shortened: as §1

Cell Line | relative viability (AZD8055 + Tozasertib; first compound 0.01 µM) | relative viability (AZD8055 + Tozasertib; first compound 0.03162 µM) | relative viability (AZD8055 + Tozasertib; first compound 0.1 µM) | relative viability (AZD8055 + Tozasertib; first compound 0.3162 µM) | relative viability (AZD8055 + Tozasertib; first compound 1 µM) | relative viability (AZD8055 + OSI-027; first compound 0.01 µM) | relative viability (AZD8055 + OSI-027; first compound 0.03162 µM) | relative viability (AZD8055 + OSI-027; first compound 0.1 µM) | relative viability (AZD8055 + OSI-027; first compound 0.3162 µM) | relative viability (AZD8055 + OSI-027; first compound 1 µM) | relative viability (AZD8055 + Linsitinib; first compound 0.01 µM) | relative viability (AZD8055 + Linsitinib; first compound 0.03162 µM) | relative viability (AZD8055 + Linsitinib; first compound 0.1 µM) | relative viability (AZD8055 + Linsitinib; first compound 0.3162 µM) | relative viability (AZD8055 + Linsitinib; first compound 1 µM) | relative viability (AZD8055 + Crizotinib; first compound 0.01 µM) | relative viability (AZD8055 + Crizotinib; first compound 0.03162 µM) | relative viability (AZD8055 + Crizotinib; first compound 0.1 µM) | relative viability (AZD8055 + Crizotinib; first compound 0.3162 µM) | relative viability (AZD8055 + Crizotinib; first compound 1 µM)
NCI-H441 | 0.591 | 0.767 | 0.499 | 0.309 | 0.295 | 0.676 | 0.647 | 0.476 | 0.408 | 0.339 | 0.515 | 0.337 | 0.346 | 0.203 | 0.33 | 0.767 | 0.667 | 0.565 | 0.359 | 0.232
NCI-H1793 | 0.299 | 0.219 | 0.154 | 0.136 | 0.145 | 0.291 | 0.215 | 0.196 | 0.18 | 0.202 | 0.539 | 0.315 | 0.224 | 0.197 | 0.18 | – | – | – | – | –
NCI-H23 | 0.486 | 0.311 | 0.248 | 0.24 | 0.235 | 0.673 | 0.555 | 0.626 | 0.426 | 0.323 | 0.521 | 0.484 | 0.294 | 0.244 | 0.259 | 0.562 | 0.507 | 0.41 | 0.295 | 0.265
HARA | 0.103 | 0.162 | 0.0997 | 0.0987 | 0.0859 | 0.612 | 0.641 | 0.419 | 0.419 | 0.249 | 0.942 | 0.998 | 0.517 | 0.303 | 0.202 | 1.09 | 1.14 | 0.855 | 0.573 | 0.33
NCI-H1792 | – | – | – | – | – | 0.799 | 0.674 | 0.574 | 0.431 | 0.26 | 0.292 | 0.233 | 0.223 | 0.128 | 0.101 | 0.927 | 0.82 | 0.82 | 0.173 | 0.157
NCI-H1703 | – | – | – | – | – | – | – | – | – | – | 0.514 | 0.576 | 0.623 | 0.102 | 0.29 | 0.635 | 0.489 | 0.508 | 0.4 | 0.222
NCI-H2342 | 0.477 | 0.423 | 0.395 | 0.345 | 0.371 | 0.598 | 0.621 | 0.571 | 0.529 | 0.594 | – | – | – | – | – | – | – | – | – | –
CAL-12T | 0.329 | 0.37 | 0.277 | 0.174 | 0.166 | 0.717 | 0.738 | 0.614 | 0.208 | 0.26 | 0.84 | 0.658 | 0.465 | 0.211 | 0.258 | 0.557 | 0.607 | 0.521 | 0.308 | 0.165
NCI-H727 | 0.849 | 0.77 | 0.499 | 0.414 | 0.487 | 0.674 | 0.604 | 0.49 | 0.351 | 0.409 | 0.246 | 0.246 | 0.302 | 0.28 | 0.248 | 0.994 | 0.896 | 0.536 | 0.292 | 0.279
NCI-H2085 | 0.775 | 0.759 | 0.703 | 0.388 | 0.338 | 0.744 | 0.852 | 0.551 | 0.34 | 0.355 | 0.956 | 0.744 | 0.566 | 0.289 | 0.274 | 0.927 | 0.805 | 0.639 | 0.359 | 0.315
NCI-H1395 | 0.752 | 0.581 | 0.562 | 0.488 | 0.44 | 0.657 | 0.618 | 0.535 | 0.443 | 0.422 | 1.1 | 0.828 | 0.708 | 0.553 | 0.522 | – | – | – | – | –
NCI-H1648 | 0.461 | 0.702 | 0.34 | 0.232 | 0.226 | 0.27 | 0.235 | 0.289 | 0.234 | 0.296 | – | – | – | – | – | – | – | – | – | –
NCI-H460 | 0.648 | 0.675 | 0.529 | 0.208 | 0.124 | 0.85 | 0.47 | 0.506 | 0.141 | 0.124 | 0.555 | 0.213 | 0.206 | 0.0409 | 0.0438 | 1.05 | 0.654 | 0.818 | 0.106 | 0.0777
A549 | – | – | – | – | – | – | – | – | – | – | 0.552 | 0.382 | 0.246 | 0.11 | 0.0862 | 0.674 | 0.689 | 0.324 | 0.231 | 0.0846
IA-LM | – | – | – | – | – | – | – | – | – | – | 0.876 | 0.611 | 0.252 | 0.0793 | 0.118 | 0.923 | 0.472 | 0.347 | 0.0713 | 0.105
EKVX | 0.451 | 0.418 | 0.345 | 0.226 | 0.202 | 0.753 | 0.745 | 0.665 | 0.51 | 0.411 | 1.05 | 0.947 | 0.604 | 0.384 | 0.24 | 1.21 | 0.943 | 0.81 | 0.524 | 0.393
ChaGo-K-1 | 0.214 | 0.213 | 0.213 | 0.168 | 0.175 | 0.584 | 0.576 | 0.624 | 0.56 | 0.541 | – | – | – | – | – | 1.28 | 1.21 | 1.07 | 1.18 | 0.887
